From patent US7648999B2, “Activator for peroxisome proliferator-activated receptor δ” (Nippon Chemiphar Co., Ltd., priority 2007, dated 2010)
Where two headings read alike, the source gives them in different places.

Key:
Assay type in all cases: cell-based
PPARδ (GAL4-hPPARδ LBD) = molecular target: T1, PPARδ (GAL4-hPPARδ LBD) (Homo sapiens, UniProt Q03181); test: PPARδ transactivation activity (GAL4 chimera luciferase reporter in CV-1 cells)
T1 construct: A chimeric receptor expression plasmid (GAL4-hPPARδ LBD), a reporter plasmid (UASx4-TK-LUC); expressed in transfected cells; host or cells: CV-1 cells
T1 sequence (Q03181 211-439 limits assumed): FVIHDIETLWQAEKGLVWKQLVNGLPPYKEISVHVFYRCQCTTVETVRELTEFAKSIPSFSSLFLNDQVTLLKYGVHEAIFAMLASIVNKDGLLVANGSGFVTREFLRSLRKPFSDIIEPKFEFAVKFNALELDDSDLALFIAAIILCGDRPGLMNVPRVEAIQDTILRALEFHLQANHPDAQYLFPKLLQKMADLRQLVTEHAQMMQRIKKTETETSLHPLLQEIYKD
Protocol: A chimeric receptor expression plasmid (GAL4-hPPARδ LBD), a reporter plasmid (UASx4-TK-LUC) and β-galactosidase (β-GAL) are transfected into CV-1 cells by utilizing a lipofection reagent DMRIE-C (Life Technologies).
(1) Measurement of PPARα, γ, δ Transactivation Activity
CV-1 cells were obtained from Tohoku University Aging Medical Laboratory, Medical Cell Collection Center. All test compounds were dissolved in dimethylsulfoxide (DMSO). Final concentration of DMSO was 0.1%.
CV-1 cells were seeded in 24 well culture plates at 2×10^5 cells per well, and cultured for 24 hours OPTI-MEM I Reduced Serum Medium (Life Technologies, 500 μL/well) containing 4%-fetal bovine serum (FBS). After washing with OPTI-MEM, transfection mixture (250 μL/well) containing 0.03 μg of GAL4-hPPARδ LBD, 0.25 μg of UASx-4-TK-LUC, 0.35 μg of βGAL, and 2 μL of lipofection reagent, DMRIE-C (Life Technologies) were added. The cells were incubated for 5 hours at 37° C.
The cells were washed and incubated for 40 hours in the presence of the test compound (final concentration was 10^−7M or 10^−6M)
The culture medium was removed and the cells were washed with PBS twice. A solubilizing buffer (100 μL/well) containing 25 mM Tris-PO4 (pH 7.8), 15% v/v glycerol, 2% CHAPS, 1% Lecithin, 1% BSA, 4 mM EGTA (pH 8.0), 8 mM MgCl2, 1 mM DTT was added. After the incubation for 10 minutes at room temperature, a portion (20 μL) of the solution was transferred into a 96-well plate. Subsequently, 100 μL of luciferase substrate solution (Piccagene: available from Nippon Gene Co., Ltd.) was added, and a luminous intensity per one second (luciferase activity) was measured using a microluminoreader (Type MLR-100, Corona Electrics Co., Ltd.). Each luciferase activity was corrected by the transfection efficiency which was calculated from β-galactosidase activity. The assay method of β-galactosidase activity was as follows: A portion (50 μL) of the solubilized sample was transferred into another 96-well plate; 100 μL of ONPG (2-nitrophenyl-β-galactopyranoside) solution was added and incubated for 5 minutes at room temperature. 50 μL of a reaction stopping solution (1M sodium carbonate solution) was added. Then the absorbance at 414 nm was measured.

PPARα (GAL4-hPPARα LBD) = molecular target: T2, PPARα (GAL4-hPPARα LBD) (Homo sapiens, UniProt Q07869); test: PPARα transactivation activity (GAL4 chimera luciferase reporter in CV-1 cells)
T2 construct: Receptor expression plasmid (GAL4-hPPARα, LBD GAL4-hPPARγ LBD, GAL4-hPPARδ LBD); expressed in transfected cells; host or cells: CV-1 cells
T2 sequence (Q07869 239-466 limits assumed): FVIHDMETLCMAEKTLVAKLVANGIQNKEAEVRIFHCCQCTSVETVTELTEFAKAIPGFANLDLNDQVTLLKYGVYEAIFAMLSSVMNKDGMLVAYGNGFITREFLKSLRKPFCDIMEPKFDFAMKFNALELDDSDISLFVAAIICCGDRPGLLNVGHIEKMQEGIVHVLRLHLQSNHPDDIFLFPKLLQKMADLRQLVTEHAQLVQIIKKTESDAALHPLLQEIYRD

PPARγ (GAL4-hPPARγ LBD) = molecular target: T3, PPARγ (GAL4-hPPARγ LBD) (Homo sapiens, UniProt P37231); test: PPARγ transactivation activity (GAL4 chimera luciferase reporter in CV-1 cells)
T3 construct: Receptor expression plasmid (GAL4-hPPARα, LBD GAL4-hPPARγ LBD, GAL4-hPPARδ LBD); expressed in transfected cells; host or cells: CV-1 cells
T3 sequence (P37231 238-503 limits assumed): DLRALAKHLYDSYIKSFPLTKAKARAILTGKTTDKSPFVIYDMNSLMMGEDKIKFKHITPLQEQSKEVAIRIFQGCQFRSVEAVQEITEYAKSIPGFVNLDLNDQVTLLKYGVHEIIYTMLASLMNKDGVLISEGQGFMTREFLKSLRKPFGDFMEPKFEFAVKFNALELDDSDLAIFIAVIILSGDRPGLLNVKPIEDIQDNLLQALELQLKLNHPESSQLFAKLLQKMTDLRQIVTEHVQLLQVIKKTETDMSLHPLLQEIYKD

[1] = compound at 10^−7 M, CV-1 cells, 40 hours, positive control 10^−4 M L-165041 = 100%
[2] = compound at 10^−7 M, CV-1 cells, 40 hours, positive control 10^−4 M WY-14643 = 100%
[3] = compound at 10^−7 M, CV-1 cells, 40 hours, positive control 10^−5 M Rosiglitazone = 100%
[4] = compound at 10^−7 M (value without parentheses)
[5] = compound at 10^−6 M (value in parentheses)

Compound	Relative activity for PPAR transactivation, δ (PPARδ (GAL4-hPPARδ LBD); [4])	Relative activity for PPAR transactivation, α (PPARα (GAL4-hPPARα LBD); [4])	Relative activity for PPAR transactivation, γ (PPARγ (GAL4-hPPARγ LBD); [4])	other results
4-[3-[4-Methyl-2-(4-trifluoromethyl)phenyl-5-thiazolyl]propionyl]-2-methylphenoxy]acetic acid [Example 44]				PPARδ transactivation activity / activating effect (in words) (PPARδ (GAL4-hPPARδ LBD)): inferior in the PPARδ transactivation activity; Relative activity for PPAR transactivation, δ (PPARδ (GAL4-hPPARδ LBD)): (38) % of control; Relative activity for PPAR transactivation, α (PPARα (GAL4-hPPARα LBD)): (0) % of control; Relative activity for PPAR transactivation, γ (PPARγ (GAL4-hPPARγ LBD)): (0) % of control
Cc1cc(C(=O)CCc2sc(-c3ccc(C(F)(F)F)cc3)nc2C(C)C)ccc1OCC(=O)O [Example 3, [4-[3-[2-(4-Trifluoromethyl)phenyl-4-isopropyl-5-thiazolyl]propionyl]-2-methylphenoxy]acetic acid]				Relative activity for PPAR transactivation, δ (PPARδ (GAL4-hPPARδ LBD); [1]): 101 % of control; Relative activity for PPAR transactivation, α (PPARα (GAL4-hPPARα LBD); [2]): 0 % of control; Relative activity for PPAR transactivation, γ (PPARγ (GAL4-hPPARγ LBD); [3]): 5 % of control
Cc1cc(C(=O)CCc2nc(-c3ccc(Cl)cc3O)oc2C(C)C)ccc1OCC(=O)O [Example 6, [4-[3-[2-(2-Hydroxy-4-chlorophenyl)-5-isopropyl-4-oxazolyl]propionyl]-2-methylphenoxy]acetic acid]				Relative activity for PPAR transactivation, δ (PPARδ (GAL4-hPPARδ LBD); [1]): 73 % of control; Relative activity for PPAR transactivation, α (PPARα (GAL4-hPPARα LBD); [2]): 0 % of control; Relative activity for PPAR transactivation, γ (PPARγ (GAL4-hPPARγ LBD); [3]): 6 % of control
CCCCCCc1nc(-c2ccc(C(F)(F)F)cc2)sc1CCC(=O)c1ccc(OCC(=O)O)c(C)c1 [Example 11, [4-[3-[4-Hexyl-2-(4-trifluoromethyl)phenyl-5-thiazolyl]propionyl]-2-methylphenoxy]acetic acid]	56 % of control	0 % of control	1 % of control	
CCCCCCc1nc(-c2ccc(C(F)(F)F)cc2)sc1CCC(=O)c1ccc(OC(C)(C)C(=O)O)c(C)c1 [Example 12, 2-[4-[3-[4-Hexyl-2-(4-trifluoromethyl)phenyl-5-thiazolyl]propionyl]-2-methylphenoxy]-2-methylpropionic acid]	45 % of control	75 % of control	31 % of control	
C=CCc1cc(C(=O)CCc2sc(-c3ccc(C(F)(F)F)cc3)nc2C(C)C)ccc1OCC(=O)O [Example 19, 2-Allyl-4-[3-[4-isopropyl-2-(4-trifluoromethyl)phenyl-5-thiazolyl]propionyl]phenoxyacetic acid]	86 % of control	0 % of control	2 % of control	
Cc1cc(C(=O)CCc2nc(-c3ccc(C(F)(F)F)cc3)sc2C(C)C)ccc1OCC(=O)O [Example 37, [4-[3-[5-Isopropyl-2-(4-trifluoromethyl)phenyl-4-thiazolyl]propionyl]-2-methylphenoxy]acetic acid]				Relative activity for PPAR transactivation, δ (PPARδ (GAL4-hPPARδ LBD)): (71) % of control
Cc1ccc(C(=O)CCc2sc(-c3ccc(C(F)(F)F)cc3)nc2C(C)C)cc1OCC(=O)O [Example 41, [5-[3-[4-Isopropyl-2-(4-trifluoromethyl)phenyl-5-thiazolyl]propionyl]-2-methylphenoxy]acetic acid]				Relative activity for PPAR transactivation, α (PPARα (GAL4-hPPARα LBD); [5]): (5) % of control; Relative activity for PPAR transactivation, γ (PPARγ (GAL4-hPPARγ LBD); [5]): (60) % of control
Cc1ccc(C(=O)CCc2sc(-c3ccc(C(F)(F)F)cc3)nc2C(C)C)cc1OC(C)(C)C(=O)O [Example 42, 2-[5-[3-[4-Isopropyl-2-(4-trifluoromethyl)phenyl-5-thiazolyl]propionyl]-2-methylphenoxy]-2-methylpropionic acid]				Relative activity for PPAR transactivation, α (PPARα (GAL4-hPPARα LBD); [5]): (68) % of control; Relative activity for PPAR transactivation, γ (PPARγ (GAL4-hPPARγ LBD); [5]): (55) % of control
[4-[3-[4-Isopropyl-2-(4-methoxyphenyl)-5-thiazolyl]propionyl]-2-methylphenoxy]propionic acid [Example 26]	18 % of control			

More lines, main results first:

Relative activity for PPAR transactivation, δ (PPARδ (GAL4-hPPARδ LBD); [4])	Relative activity for PPAR transactivation, α (PPARα (GAL4-hPPARα LBD); [4])	Relative activity for PPAR transactivation, γ (PPARγ (GAL4-hPPARγ LBD); [4])	Compound	other results
62 % of control	63 % of control	17 % of control	Cc1cc(C=CCc2sc(-c3ccc(C(F)(F)F)cc3)nc2C(C)C)ccc1OC(C)(C)C(=O)O [Example 13, 2-[4-[3-[4-Isopropyl-2-(4-trifluoromethyl)phenyl-5-thiazolyl]-1-propenyl]-2-methylphenoxy]-2-methylpropionic acid]	
42 % of control	0 % of control	0 % of control	Cc1cc(OCC(=O)O)ccc1C(=O)CCc1sc(-c2ccc(C(F)(F)F)cc2)nc1C(C)C [Example 14, [4-[3-[4-Isopropyl-2-(4-trifluoromethyl)phenyl-5-thiazolyl]propionyl]-3-methylphenoxy]acetic acid]	
57 % of control	62 % of control	3 % of control	Cc1cc(OC(C)(C)C(=O)O)ccc1C(=O)CCc1sc(-c2ccc(C(F)(F)F)cc2)nc1C(C)C [Example 16, [4-[3-[4-Isopropyl-2-(4-trifluoromethyl)phenyl-5-thiazolyl]propionyl]-3-methylphenoxy]-2-methylpropionic acid]	
70 % of control	0 % of control	1 % of control	CCCc1cc(C(=O)CCc2sc(-c3ccc(C(F)(F)F)cc3)nc2C(C)C)ccc1OCC(=O)O [Example 18, [4-[3-[4-Isopropyl-2-(4-trifluoromethyl)phenyl-5-thiazolyl]propionyl]-2-propylphenoxy]acetic acid]	
75 % of control	0 % of control	0 % of control	Cc1cc(C(=O)C=Cc2sc(-c3ccc(C(F)(F)F)cc3)nc2C(C)C)ccc1OCC(=O)O [Example 24, [4-[3-[4-Isopropyl-2-(4-trifluoromethyl)phenyl-5-thiazolyl]propenoyl]-2-methylphenoxy]acetic acid]	
61 % of control			Cc1cc(C(=O)C=Cc2sc(-c3ccc(C(F)(F)F)cc3)nc2C(C)C)ccc1OC(C)(C)C(=O)O [Example 25, 2-[4-[3-[4-Isopropyl-2-(4-trifluoromethyl)phenyl-5-thiazolyl]propenoyl]-2-methylphenoxy]-2-methylpropionic acid]	
